Experimental data taken from paper PMC7504751, “Potential of 2-Chloro-N-(4-fluoro-3-nitrophenyl)acetamide Against Klebsiella pneumoniae and In Vitro Toxicity Analysis” (Molecules, 2020).
≈ marks a conversion by molar mass, not a printed value. Read-outs that look alike come from different tables or passages of the source.

How the values were obtained:
oral mucosa cells = experiment: Genotoxic effects on oral mucosa cells; format: cell-based, human; settings: for Binucleation / Karyolysis / Karyorrhexis / Micronucleus / Normal: 30 min ex vivo
Procedure: The tests were performed according to the recommendations established by the Code of Ethics of the World Medical Association, after approval by the ethics committee of the Centro Universitário de Patos (number: 3621284). Blood samples (types A, B, and O) and smears of oral mucosa were donated by young, healthy adults. First, the oral mucosa cells were collected from the donors, which was done with a cyto-brush (smear collector) in the cheek area, and the material obtained was placed in 5 mL of 0.9% NaCl. As controls, cells treated with hydrogen peroxide −0.0005% (positive control) and untreated cells (negative control) were used. The cells were washed twice with saline and centrifuged for 10 min at 400× g and kept in saline. After the third wash, the cells were exposed (ex vivo) to A2 substance at 50, 100, 500, and 1000 µg/mL concentrations for 30 min. The material was centrifuged and the supernatant was discarded before smear preparation. The cells were homogenized in a vortex and placed on the slides at room temperature for drying for 15 min. Then, they were fixed with methanol: acetic acid (3:1) for 15 min and stained with 2% Giemsa.

K. pneumoniae strains = experiment: Minimum inhibitory concentration (MIC), broth microdilution; format: cell-based, Klebsiella pneumoniae
Procedure: The clinical isolates strains of K. pneumoniae were used in this study belong to the MICOTECA of the Antibacterial and Antifungal Activity Research Laboratory of the Federal University of Paraíba, Brazil, which are: KP-25, KP-26, KP-56, KP-83, KP-87, KP-138, KP-143, KP-166, KP-173, KP-176, KP-260, and KP-326. The American Type Culture Collection strain ATCC-700603 was used as controls. For use in the assays, bacterial suspensions were prepared in 0.9% saline solution, from fresh cultures, and adjusted to the McFarland standard 0.5 scale.
To assess the antibacterial activity of substances A1 and A2, the minimum inhibitory concentration against K. pneumoniae strains was determined. The substances were solubilized in dimethyl sulfoxide (DMSO) at 5% and Tween-80 at 2%, to obtain emulsions in the concentrations necessary for use in the tests. The MIC determination was performed using the broth microdilution technique in a 96-well plate to obtain different concentrations of A1 and A2 [35]. In parallel, controls for sterility, cell viability, and interference of the vehicles used in the preparation of substance emulsions (DMSO and Tween-80) were also performed. MIC is defined as the lowest concentration capable of causing complete inhibition of bacterial growth after 24 h at 35 ± 2 °C.

melting point: 91 to 93 °C | MIC (K. pneumoniae strains; Klebsiella pneumoniae, ATCC700603, strain ATCC-700603, 24 h at 35 ± 2 °C, read-out: MIC): 512 µg/mL (≈ 2200 µM) | MIC (K. pneumoniae strains; Klebsiella pneumoniae, 100% of the K. pneumoniae strains used in this study, read-out: MIC): 512 µg/mL (≈ 2200 µM) | MIC (K. pneumoniae strains; Klebsiella pneumoniae, strain KP-138, 24 h at 35 ± 2 °C, read-out: MIC): 512 µg/mL (≈ 2200 µM) | MIC (K. pneumoniae strains; strain KP-25, 24 h at 35 ± 2 °C): 512 µg/mL (≈ 2200 µM) | MIC (K. pneumoniae strains; strain KP-26, 24 h at 35 ± 2 °C): 512 µg/mL (≈ 2200 µM) | MIC (K. pneumoniae strains; strain KP-56, 24 h at 35 ± 2 °C): 512 µg/mL (≈ 2200 µM) | MIC (K. pneumoniae strains; strain KP-83, 24 h at 35 ± 2 °C): 512 µg/mL (≈ 2200 µM) | MIC (K. pneumoniae strains; strain KP-87, 24 h at 35 ± 2 °C): 512 µg/mL (≈ 2200 µM) | MIC (K. pneumoniae strains; strain KP-143, 24 h at 35 ± 2 °C): 512 µg/mL (≈ 2200 µM) | MIC (K. pneumoniae strains; strain KP-166, 24 h at 35 ± 2 °C): 512 µg/mL (≈ 2200 µM) | MIC (K. pneumoniae strains; strain KP-173, 24 h at 35 ± 2 °C): 512 µg/mL (≈ 2200 µM) | MIC (K. pneumoniae strains; strain KP-176, 24 h at 35 ± 2 °C): 512 µg/mL (≈ 2200 µM) | MIC (K. pneumoniae strains; strain KP-260, 24 h at 35 ± 2 °C): 512 µg/mL (≈ 2200 µM) | MIC (K. pneumoniae strains; strain KP-326, 24 h at 35 ± 2 °C): 512 µg/mL (≈ 2200 µM)
SMILES: O=C(CCl)Nc1ccc(F)c([N+](=O)[O-])c1 [A2, 2-chloro-N-(4-fluoro-3-nitrophenyl)acetamide]
Binucleation (oral mucosa cells; 50 µg/mL): 0.00% | Karyolysis (oral mucosa cells; 50 µg/mL): 1.00% | Karyorrhexis (oral mucosa cells; 50 µg/mL): 1.00% | Micronucleus (oral mucosa cells; 50 µg/mL): 0.50% | Normal (oral mucosa cells; 50 µg/mL): 97.50% | Binucleation (oral mucosa cells; 100 µg/mL): 0.00% | Karyolysis (oral mucosa cells; 100 µg/mL): 3.00% | Karyorrhexis (oral mucosa cells; 100 µg/mL): 4.00% | Micronucleus (oral mucosa cells; 100 µg/mL): 0.50% | Normal (oral mucosa cells; 100 µg/mL): 92.50% | Binucleation (oral mucosa cells; 500 µg/mL): 0.50% | Karyolysis (oral mucosa cells; 500 µg/mL): 4.00% | Karyorrhexis (oral mucosa cells; 500 µg/mL): 5.00% | Micronucleus (oral mucosa cells; 500 µg/mL): 0.70% | Normal (oral mucosa cells; 500 µg/mL): 86.80% | Binucleation (oral mucosa cells; 1000 µg/mL): 0.50% | Karyolysis (oral mucosa cells; 1000 µg/mL): 5.00% | Karyorrhexis (oral mucosa cells; 1000 µg/mL): 7.00% | Micronucleus (oral mucosa cells; 1000 µg/mL): 2.00% | Normal (oral mucosa cells; 1000 µg/mL): 83.50% | normal cells (oral mucosa cells; all tested concentrations (50–1000 µg/mL)): greater than 80%
